Laboratory results reported in ChEMBL document CHEMBL3108775, “Rescuing biological activity from synthetic phakellistatin 19” (J Med Chem, 2013).
Numbered stars: 1 amine (or outer) side, 2 acyl side, 3 side chain; on linkers, the order of the positions; unused ones are H or OH. Square brackets hold non-standard residues; d marks the D form. Peptide text beside a SMILES is read from it. X1 = CC1(C)SC[C@@H](C(=O)[*:2])N1[*:1]

What was measured:
[1] = tested on: HT-29; assay: Cytotoxicity against human HT-29 cells by MTT assay; assay type: functional
[2] = tested on: MDA-MB-231; assay: Cytotoxicity against human MDA-MB-231 cells by MTT assay; assay type: functional
[3] = tested on: A549; assay: Cytotoxicity against human A549 cells by MTT assay; assay type: functional
[4] = tested on: MDA-MB-231; assay: Antimitotic activity against human MDA-MB-231 cells; assay type: functional, cell-based
[5] = tested on: A549; assay: Antimitotic activity against human A549 cells; assay type: functional, cell-based
[6] = tested on: HT-29; assay: Antimitotic activity against human HT-29 cells; assay type: functional, cell-based

SMILES	GI50 [1] [µM]	LC50 [1] [µM]	TGI [1] [µM]	GI50 [2] [µM]	LC50 [2] [µM]	TGI [2] [µM]	GI50 [3] [µM]	LC50 [3] [µM]	TGI [3] [µM]	IC50 [4] [µM]	IC50 [5] [µM]	IC50 [6] [µM]
CC[C@H](C)[C@@H]1NC(=O)[C@@H]2CCCN2C(=O)[C@H]([C@@H](C)O)NC(=O)[C@H](CC(C)C)NC(=O)[C@@H]2CCCN2C(=O)[C@H](Cc2ccccc2)NC(=O)[C@H](Cc2c[nH]c3ccccc23)NC(=O)[C@@H]2CSC(C)(C)N2C1=O (cyclo(FPLTPI[X1]W))	> 10	> 10	> 10	> 10	> 10	> 10	> 10	> 10	> 10			
CC[C@H](C)[C@@H]1NC(=O)[C@@H]2CSC(C)(C)N2C(=O)[C@H]([C@@H](C)O)NC(=O)[C@H](CC(C)C)NC(=O)[C@@H]2CCCN2C(=O)[C@H](Cc2ccccc2)NC(=O)[C@H](Cc2c[nH]c3ccccc23)NC(=O)[C@@H]2CCCN2C1=O (cyclo(FPLT[X1]IPW))	4.01	4.61	4.21	2.7	6.01	4.11	> 10	> 10	> 10			
CC[C@H](C)[C@@H]1NC(=O)[C@@H]2CSC(C)(C)N2C(=O)[C@H]([C@@H](C)O)NC(=O)[C@H](CC(C)C)NC(=O)[C@@H]2CCCN2C(=O)[C@H](Cc2ccccc2)NC(=O)[C@H](Cc2c[nH]c3ccccc23)NC(=O)[C@@H]2CSC(C)(C)N2C1=O (cyclo(FPLT[X1]I[X1]W))	1.82	2.39	2.11	2.2	5.08	3.35	3.64	> 9.58	> 9.58			
CC[C@H](C)[C@@H]1NC(=O)[C@@H]2CCCN2C(=O)[C@H]([C@@H](C)O)NC(=O)[C@H](CC(C)C)NC(=O)[C@@H]2CSC(C)(C)N2C(=O)[C@H](Cc2ccccc2)NC(=O)[C@H](Cc2c[nH]c3ccccc23)NC(=O)[C@@H]2CCCN2C1=O (cyclo(F[X1]LTPIPW))	5.71	> 10	> 10	6.11	> 10	> 10	> 10	> 10	> 10			
CC[C@H](C)[C@@H]1NC(=O)[C@@H]2CCCN2C(=O)[C@H]([C@@H](C)O)NC(=O)[C@H](CC(C)C)NC(=O)[C@@H]2CSC(C)(C)N2C(=O)[C@H](Cc2ccccc2)NC(=O)[C@H](Cc2c[nH]c3ccccc23)NC(=O)[C@@H]2CSC(C)(C)N2C1=O (cyclo(F[X1]LTPI[X1]W))	3.16	> 9.58	6.61	5.65	> 9.58	> 9.58	> 9.58	> 9.58	> 9.58			
CC[C@H](C)[C@@H]1NC(=O)[C@@H]2CSC(C)(C)N2C(=O)[C@H]([C@@H](C)O)NC(=O)[C@H](CC(C)C)NC(=O)[C@@H]2CSC(C)(C)N2C(=O)[C@H](Cc2ccccc2)NC(=O)[C@H](Cc2c[nH]c3ccccc23)NC(=O)[C@@H]2CCCN2C1=O (cyclo(F[X1]LT[X1]IPW))	1.82	2.68	2.2	1.72	2.3	2.01	3.45	> 9.58	7.85			
CC[C@H](C)[C@@H]1NC(=O)[C@@H]2CSC(C)(C)N2C(=O)[C@H]([C@@H](C)O)NC(=O)[C@H](CC(C)C)NC(=O)[C@@H]2CSC(C)(C)N2C(=O)[C@H](Cc2ccccc2)NC(=O)[C@H](Cc2c[nH]c3ccccc23)NC(=O)[C@@H]2CSC(C)(C)N2C1=O (cyclo(F[X1]LT[X1]I[X1]W))	1.38	2.11	1.74	1.65	2.2	1.93	1.47	1.83	1.65			
CC[C@H](C)[C@@H]1NC(=O)[C@@H]2CCCN2C(=O)[C@H]([C@@H](C)O)NC(=O)[C@H](CC(C)C)NC(=O)[C@@H]2CCCN2C(=O)[C@H](Cc2ccccc2)NC(=O)[C@H](Cc2c[nH]c3ccccc23)NC(=O)[C@@H]2CCCN2C1=O [STYLISSAMIDE X] (cyclo(FPLTPIPW))	0.462	> 10.5	0.672	0.515	> 10.5	1.47	0.44	> 10.5	1.16	0.084	0.084	0.084
